Test results reported in US8901118B2, “Compounds and methods for kinase modulation, and indications therefor” (Plexxikon Inc., priority 2010, dated 2014).

What was measured:
Flt-3 kinase = molecular target: T1, Flt-3 kinase (Homo sapiens, UniProt P36888); assay: Flt-3 kinase biochemical activity assay (AlphaScreen); conditions: 100 μM ATP; read-out: Biochemical Inhibition IC50 Flt3
T1 sequence (P36888 27-993): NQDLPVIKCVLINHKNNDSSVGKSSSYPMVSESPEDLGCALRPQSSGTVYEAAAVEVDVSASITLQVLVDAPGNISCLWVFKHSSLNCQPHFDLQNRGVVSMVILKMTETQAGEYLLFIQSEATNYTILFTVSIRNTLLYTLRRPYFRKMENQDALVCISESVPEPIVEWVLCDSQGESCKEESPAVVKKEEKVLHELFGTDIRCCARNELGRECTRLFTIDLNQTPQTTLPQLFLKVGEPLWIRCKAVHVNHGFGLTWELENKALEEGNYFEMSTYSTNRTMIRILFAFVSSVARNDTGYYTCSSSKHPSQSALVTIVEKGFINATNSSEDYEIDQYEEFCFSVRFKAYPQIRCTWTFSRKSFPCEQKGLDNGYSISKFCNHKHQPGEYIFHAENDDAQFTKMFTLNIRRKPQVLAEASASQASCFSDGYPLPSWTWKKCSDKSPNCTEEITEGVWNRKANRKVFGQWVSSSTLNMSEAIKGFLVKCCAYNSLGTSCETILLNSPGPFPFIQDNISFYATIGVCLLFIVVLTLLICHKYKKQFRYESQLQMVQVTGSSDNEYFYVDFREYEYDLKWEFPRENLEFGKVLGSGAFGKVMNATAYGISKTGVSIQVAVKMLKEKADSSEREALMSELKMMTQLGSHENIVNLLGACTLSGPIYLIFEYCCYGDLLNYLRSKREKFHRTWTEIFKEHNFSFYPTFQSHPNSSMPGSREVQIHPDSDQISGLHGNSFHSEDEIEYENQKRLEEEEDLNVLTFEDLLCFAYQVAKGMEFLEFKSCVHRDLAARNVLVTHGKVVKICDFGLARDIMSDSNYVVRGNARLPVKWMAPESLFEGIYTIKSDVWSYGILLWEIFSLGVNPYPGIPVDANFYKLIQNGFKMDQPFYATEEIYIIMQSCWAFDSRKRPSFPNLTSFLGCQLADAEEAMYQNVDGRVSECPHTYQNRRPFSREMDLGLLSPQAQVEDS
Procedure: In one assay the biochemical activity IC50 values are determined with respect to inhibition of Flt-3 kinase activity, where inhibition of phosphorylation of a peptide substrate is measured as a function of compound concentration. Compounds to be tested, dissolved in DMSO (1 μL), are added to a white 384-well plate (Costar #3705). Working stocks of Flt-3 kinase (Invitrogen), biotin-(E4Y)10 substrate (Upstate Biotech, Cat#12-440), and ATP (Sigma, Cat#A-3377) are prepared in 25 mM Hepes pH 7.5, 5 mM MgCl2, 5 mM MnCl2, 1 mM DTT, and 0.01% Tween-20. All components are added to the 384-well plate for a final concentration of 1 ng/well Flt-3, 30 nM biotin-(E4Y)10 and 100 μM ATP in a volume of 20 μL. Each sample is at 5% DMSO. The plate is then incubated for 1 hour at room temperature. Just before use, working stocks of donor and acceptor beads from the AlphaScreen PY20 Detection Kit (PerkinElmer, Cat#676601M) are prepared in 25 mM Hepes pH 7.5, pH 7.4, 100 mM EDTA. 0.3% BSA. To stop the reaction, the plate is uncovered in the dark and 5 μL of Donor Beads solution (Streptavidin beads) is added to each well. The plate is incubated at room temperature for 20 minutes. Five microliters of Acceptor Beads solution (PY20 coated beads) are then added to each well. The final concentration of each bead is 10 μg/mL. The plates are incubated at room temperature for 60 minutes. Fluorescence signal is recorded on the Envision reader. Phosphorylated substrate results in binding of the PY20 antibody and association of the donor and acceptor beads such that signal correlates with kinase activity. The signal vs. compound concentration is used to determine the IC50.

CYP1A2 = molecular target: T2, CYP1A2 (Homo sapiens, UniProt P05177); assay: CYP1A2 inhibition (fluorescent substrate CEC); format: in vitro ADME; conditions: read-out: Cyp IC50 1A2
T2 sequence (P05177 1-516): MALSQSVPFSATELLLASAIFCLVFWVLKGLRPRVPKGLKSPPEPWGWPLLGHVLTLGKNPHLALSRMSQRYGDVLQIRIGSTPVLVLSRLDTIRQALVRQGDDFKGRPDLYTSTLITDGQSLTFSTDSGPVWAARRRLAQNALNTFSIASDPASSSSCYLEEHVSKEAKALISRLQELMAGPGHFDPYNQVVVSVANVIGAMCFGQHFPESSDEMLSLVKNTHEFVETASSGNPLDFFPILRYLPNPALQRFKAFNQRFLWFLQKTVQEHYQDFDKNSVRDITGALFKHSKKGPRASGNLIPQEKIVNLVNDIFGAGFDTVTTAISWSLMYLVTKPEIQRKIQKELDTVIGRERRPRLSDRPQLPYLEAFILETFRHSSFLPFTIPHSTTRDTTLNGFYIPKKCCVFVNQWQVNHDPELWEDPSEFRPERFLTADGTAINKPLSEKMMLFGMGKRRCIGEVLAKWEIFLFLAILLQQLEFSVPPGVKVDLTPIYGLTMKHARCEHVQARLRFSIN
Outline: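 Test compound titrated 1:1 across ten concentrations; metabolite fluorescence measured after 37 °C incubation of 15 min (CYP1A2), 30 min (CYP2C19, CYP2D6) or 45 min (CYP2C9). IC50 from signal versus concentration.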

SMILES	IC50 (Flt-3 kinase)	IC50 (CYP1A2)
COc1ccc(Nc2ccc(Cc3c[nH]c4ncc(C)cc34)c(F)n2)cn1 [Compound P-3019, [6-fluoro-5-(5-methyl-1H-pyrrolo[2,3-b]pyridin-3-ylmethyl)-pyridin-2-yl]-(6-methoxy-pyridin-3-yl)-amine]	< 1000 nM	> 10000 nM
CCOc1ccc(Nc2ccc(Cc3c[nH]c4ncc(C)cc34)c(F)n2)cn1 [Compound P-3039, (6-ethoxy-pyridin-3-yl)-[6-fluoro-5-(5-methyl-1H-pyrrolo[2,3-b]pyridin-3-ylmethyl)-pyridin-2-yl]-amine]	< 100 nM	> 10000 nM
COc1ccc(Nc2ccc(C(=O)c3c[nH]c4ncc(C)cc34)c(F)n2)cn1 [Compound P-3040, [2-Fluoro-6-(6-methoxy-pyridin-3-ylamino)-pyridin-3-yl]-(5-methyl-1H-pyrrolo[2,3-b]pyridin-3-yl)-methanone]	< 100 nM	> 10000 nM
Cc1cnc2[nH]cc(C(=O)c3ccc(Nc4ccc(C)nc4)nc3F)c2c1 [Compound P-3043, [2-Fluoro-6-(6-methyl-pyridin-3-ylamino)-pyridin-3-yl]-(5-methyl-1H-pyrrolo[2,3-b]pyridin-3-yl)-methanone]	< 1000 nM	> 10000 nM
COc1ccc(Nc2ccc(Cc3c[nH]c4ncnc(OC)c34)c(F)n2)cn1 [Compound P-4001, [6-Fluoro-5-(4-methoxy-7H-pyrrolo[2,3-d]pyrimidin-5-ylmethyl)-pyridin-2-yl]-(6-methoxy-pyridin-3-yl)-amine]	< 1000 nM	> 10000 nM
CCOc1ccc(Nc2ccc(Cc3c[nH]c4ncnc(C)c34)c(F)n2)cn1 [Compound P-4006, (6-Ethoxy-pyridin-3-yl)-[6-fluoro-5-(4-methyl-7H-pyrrolo[2,3-d]pyrimidin-5-ylmethyl)-pyridin-2-yl]-amine]	< 100 nM	> 10000 nM
CCc1ccc(Nc2ccc(Cc3c[nH]c4ncnc(OC)c34)c(F)n2)cn1 [Compound P-4007, (6-Ethyl-pyridin-3-yl)-[6-fluoro-5-(4-methoxy-7H-pyrrolo[2,3-d]pyrimidin-5-ylmethyl)-pyridin-2-yl]-amine]	< 100 nM	> 10000 nM
CCOc1ccc(Nc2ccc(Cc3c[nH]c4ncnc(C5CC5)c34)c(F)n2)cn1 [Compound P-4026, [5-(4-Cyclopropyl-7H-pyrrolo[2,3-d]pyrimidin-5-ylmethyl)-6-fluoro-pyridin-2-yl]-(6-ethoxy-pyridin-3-yl)-amine]	< 100 nM	
CCOc1ccc(Nc2ccc(C(=O)c3c[nH]c4ncnc(C5CC5)c34)c(F)n2)cn1 [Compound P-4027, (4-Cyclopropyl-7H-pyrrolo[2,3-d]pyrimidin-5-yl)-[6-(6-ethoxy-pyridin-3-ylamino)-2-fluoro-pyridin-3-yl]-methanone]	< 10 nM	

Next, values leading:

IC50 (Flt-3 kinase)	IC50 (CYP1A2)	SMILES
> 1000 nM	> 10000 nM	FC1(F)CCC(Nc2ncc(Cc3c[nH]c4ncc(Cl)cc34)cn2)CC1 [Compound P-3004]
< 10 nM	> 10000 nM	Cc1cnc2[nH]cc(Cc3cnc(Nc4ccc(C(F)(F)F)nc4)nc3)c2c1 [Compound P-3018, [5-(5-Methyl-1H-pyrrolo[2,3-b]pyridin-3-ylmethyl)-pyrimidin-2-yl]-(6-trifluoromethyl-pyridin-3-yl)-amine]
< 1000 nM	> 10000 nM	Cc1cnc2[nH]cc(Cc3ccc(Nc4ccc(C)nc4)nc3F)c2c1 [Compound P-3041, [6-Fluoro-5-(5-methyl-1H-pyrrolo[2,3-b]pyridin-3-ylmethyl)-pyridin-2-yl]-(6-methyl-pyridin-3-yl)-amine]
< 1000 nM		Cc1ccc(Nc2ccc(Cc3c[nH]c4ncc(Cl)cc34)c(F)n2)cn1 [Compound P-3042, [5-(5-Chloro-1H-pyrrolo[2,3-b]pyridin-3-ylmethyl)-6-fluoro-pyridin-2-yl]-(6-methyl-pyridin-3-yl)-amine]
< 1000 nM	> 10000 nM	Cc1ccc(Nc2ccc(C(=O)c3c[nH]c4ncc(Cl)cc34)c(F)n2)cn1 [Compound P-3044, (5-Chloro-1H-pyrrolo[2,3-b]pyridin-3-yl)-[2-fluoro-6-(6-methyl-pyridin-3-ylamino)-pyridin-3-yl]-methanone]
< 100 nM		CCOc1ccc(Nc2ccc(C(=O)c3c[nH]c4ncc(C)cc34)c(F)n2)cn1 [Compound P-3045, [6-(6-ethoxy-pyridin-3-ylamino)-2-fluoro-pyridin-3-yl]-(5-methyl-1H-pyrrolo[2,3-b]pyridin-3-yl)-methanone]
< 1000 nM	> 10000 nM	COc1ncnc2[nH]cc(Cc3ccc(Nc4ccc(Cl)nc4)nc3F)c12 [Compound P-4003, (6-Chloro-pyridin-3-yl)-[6-fluoro-5-(4-methoxy-7H-pyrrolo[2,3-d]pyrimidin-5-ylmethyl)-pyridin-2-yl]-amine]
< 10 nM	> 10000 nM	COc1ncnc2[nH]cc(Cc3ccc(Nc4ccc(C5CC5)nc4)nc3F)c12 [Compound P-4004, (6-Cyclopropyl-pyridin-3-yl)-[6-fluoro-5-(4-methoxy-7H-pyrrolo[2,3-d]pyrimidin-5-ylmethyl)-pyridin-2-yl]-amine]
< 100 nM	> 10000 nM	CCOc1ccc(Nc2ccc(Cc3c[nH]c4ncnc(OC)c34)c(F)n2)cn1 [Compound P-4005, (6-Ethoxy-pyridin-3-yl)-[6-fluoro-5-(4-methoxy-7H-pyrrolo[2,3-d]pyrimidin-5-ylmethyl)-pyridin-2-yl]-amine]
< 100 nM		CCOc1ncnc2[nH]cc(Cc3ccc(Nc4ccc(Br)nc4)nc3F)c12 [Compound P-4020, (6-Bromo-pyridin-3-yl)-[5-(4-ethoxy-7H-pyrrolo[2,3-d]pyrimidin-5-ylmethyl)-6-fluoro-pyridin-2-yl]-amine]
> 1000 nM		CCOc1ncnc2[nH]cc(Cc3ccc(Nc4cccnc4)nc3F)c12 [Compound P-4021, [5-(4-Ethoxy-7H-pyrrolo[2,3-d]pyrimidin-5-ylmethyl)-6-fluoro-pyridin-2-yl]-pyridin-3-yl-amine]
< 100 nM		CCOc1ccc(Nc2ccc(C(=O)c3c[nH]c4ncnc(C)c34)c(F)n2)cn1 [Compound P-4032, [6-(6-Ethoxy-pyridin-3-ylamino)-2-fluoro-pyridin-3-yl]-(4-methyl-7H-pyrrolo[2,3-d]pyrimidin-5-yl)-methanone]
